What follows are compounds tested against Human Full Length PARG (Homo sapiens (Human), UniProt Q86W56) (assay: PARG in vitro enzyme assay (TR-FRET)). Conditions: read-out: PARG_EC50_ENZYME.
Format: biochemical
Experimental: PARG In vitro assays were conducted in a total volume of 15 ul in a standard 384 well format. 5 ul of Human Full Length PARG (Produced internally by Astra Zeneca), used at a final reaction concentration of […], was added to 5 ul of Ribosylated PARP substrate (also produced internally by Astra Zeneca) at final reaction concentration of 4.5 nM in assay buffer (50 mM Tris pH7.4, 0.1 mg/ml BSA, 3 mM EDTA, 0.4 mM EGTA, 1 mM DTT, 0.01% Tween 20, 50 mM KCl). The reaction was incubated at room temperature for 10 minutes and then 5 ul detection reagent was added. Detection Reagent consists of 42 nM MAb Anti-6HIS XL665 (CisBio: 61 HISXLB) and 2.25 nM Streptavidin Europium Cryptate (CisBio: 610SAKLB), both at 3× working stock concentrations (final concentrations of 14 nM and 0.75 nM respectively), in a detection buffer of 50 mM Tris pH7.4, BSA at 0.1 mg/ml and KF at 100 mM. Following incubation at room temperature for 60 minutes in the dark, TR-FRET signal was measured at Ex 340 and Em 665 and Em 620. A ratio was calculated as Em665/EM620×104 for each well and used to calculate percent inhibition for test compounds.

Chain of Human Full Length PARG (Q86W56 whole entry): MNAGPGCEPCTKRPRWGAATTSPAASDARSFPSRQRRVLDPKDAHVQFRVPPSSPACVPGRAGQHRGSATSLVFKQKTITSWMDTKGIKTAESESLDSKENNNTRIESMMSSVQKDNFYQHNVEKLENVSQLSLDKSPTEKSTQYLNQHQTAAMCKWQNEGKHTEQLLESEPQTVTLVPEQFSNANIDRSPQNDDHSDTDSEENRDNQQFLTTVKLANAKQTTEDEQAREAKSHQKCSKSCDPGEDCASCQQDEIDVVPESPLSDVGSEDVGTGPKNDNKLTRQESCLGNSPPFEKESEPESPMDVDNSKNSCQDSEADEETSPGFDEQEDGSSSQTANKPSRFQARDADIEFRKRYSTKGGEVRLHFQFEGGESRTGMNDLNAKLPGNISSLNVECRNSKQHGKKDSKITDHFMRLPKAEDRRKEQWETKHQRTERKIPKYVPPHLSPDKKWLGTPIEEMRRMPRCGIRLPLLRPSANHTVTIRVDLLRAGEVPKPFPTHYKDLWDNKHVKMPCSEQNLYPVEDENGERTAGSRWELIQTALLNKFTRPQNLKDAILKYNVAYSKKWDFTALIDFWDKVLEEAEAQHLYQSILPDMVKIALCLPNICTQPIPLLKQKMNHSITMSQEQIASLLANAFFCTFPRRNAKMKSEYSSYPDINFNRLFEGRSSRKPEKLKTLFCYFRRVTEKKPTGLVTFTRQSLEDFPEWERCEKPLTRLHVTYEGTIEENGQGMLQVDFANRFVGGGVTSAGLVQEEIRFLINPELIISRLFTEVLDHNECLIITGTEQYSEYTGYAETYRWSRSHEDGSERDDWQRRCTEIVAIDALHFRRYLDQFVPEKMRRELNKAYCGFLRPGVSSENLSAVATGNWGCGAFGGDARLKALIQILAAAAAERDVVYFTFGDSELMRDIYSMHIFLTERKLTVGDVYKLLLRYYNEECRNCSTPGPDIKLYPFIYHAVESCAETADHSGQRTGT

In order of rising EC50:
1. Cc1nc(C)c(Cn2c(=O)n(-c3nncs3)c3cc(S(=O)(=O)NC4(C)CC4)ccc32)s1 [Example 110]  234 nM
2. Cc1nnc(-n2c(=O)n(CC3CCCN(C)C3)c3ccc(S(=O)(=O)NC4(C)CC4)cc32)s1 (stereo not drawn) [Example 136]  567 nM
3. CC(=O)c1cn(-c2nnc(C)s2)c2cc(S(=O)(=O)NC3(C)CC3)ccc12 [Example 144, 3-Acetyl-N-(1-methylcyclopropyl)-1-(5-methyl-1,3,4-thiadiazol-2-yl)indole-6-sulfonamide]  595 nM
4. Cc1nc(C)c(Cn2c(=O)n(C3=CCCC3)c3cc(S(=O)(=O)NC4(C)CC4)ccc32)s1 [Example 113]  632 nM
5. Cc1nnc(-n2c(=O)n(C)c3c(F)cc(S(=O)(=O)NC4(C)CC4)cc32)s1 [Example 114, 7-Fluoro-1-methyl-N-(1-methylcyclopropyl)-3-(5-methyl-1,3,4-thiadiazol-2-yl)-2-oxo-benzimidazole-5-sulfonamide]  679 nM
6. Cc1nnc(-n2c(=O)n(CCN(C)C)c3ccc(S(=O)(=O)NC4(C)CC4)cc32)s1 [Example 85]  684 nM
7. Cn1c(=O)n(-c2nnc(C(F)(F)F)s2)c2cc(S(=O)(=O)NC3(C)CC3)ccc21 [Example 78]  717 nM
8. Cc1nnc(-n2c(=O)[nH]c3ccc(S(=O)(=O)NC4(C)CC4)cc32)s1 [Example 80, N-(1-Methylcyclopropyl)-3-(5-methyl-1,3,4-thiadiazol-2-yl)-2-oxo-1H-benzimidazole-5-sulfonamide]  732 nM
9. Cc1nnc(-n2c(=O)n(C)c3c(C(F)(F)F)cc(S(=O)(=O)NC4(C)CC4)cc32)s1 [Example 123, 1-Methyl-N-(1-methylcyclopropyl)-3-(5-methyl-1,3,4-thiadiazol-2-yl)-2-oxo-7-(trifluoromethyl)benzimidazole-5-sulfonamide]  734 nM
10. Cc1nnc(-n2c(=O)n(CCN3CCCCC3)c3ccc(S(=O)(=O)NC4(C)CC4)cc32)s1 [Example 149]  735 nM
11. Cc1nc(C)c(Cn2c(=O)n(-c3cscn3)c3cc(S(=O)(=O)NC4(C)CC4)ccc32)s1 [Example 95]  740 nM
12. Cc1nc(C)c(Cn2c(=O)n(-c3cncs3)c3cc(S(=O)(=O)NC4(C)CC4)ccc32)s1 [Example 97]  816 nM
13. Cc1nnc(-n2c(Cc3cnn(C)c3)nc3ccc(S(=O)(=O)NC4(C)CC4)cc32)s1 [Example 120]  867 nM
14. Cc1nc(C)c(Cn2c(=O)n(-c3cccnn3)c3cc(S(=O)(=O)NC4(C)CC4)ccc32)s1 [Example 109]  878 nM
15. COCCCn1c(=O)n(-c2nnc(C)o2)c2cc(S(=O)(=O)NC3(C)CC3)ccc21 [Example 150]  904 nM
16. COCCn1c(=O)n(-c2nnc(C)o2)c2cc(S(=O)(=O)NC3(C)CC3)ccc21 [Example 134]  910 nM
17. CCOC(=O)n1c(=O)n(Cc2ccc(F)cc2)c2ccc(S(=O)(=O)NC3(C)CC3)cc21 [Example 75]  925 nM
18. Cc1nnc(-n2c(CCc3cnn(C)c3)nc3ccc(S(=O)(=O)NC4(C)CC4)cc32)s1 [Example 121]  1020 nM
19. Cc1nnc(-n2c(=O)n(CC3CCCCN3C)c3ccc(S(=O)(=O)NC4(C)CC4)cc32)o1 (stereo not drawn) [Example 138]  1020 nM
20. Cc1nnc(-n2c(=O)n(CCN3CCOCC3)c3ccc(S(=O)(=O)NC4(C)CC4)cc32)o1 [Example 141]  1120 nM
21. Cc1nnc(-n2c(=O)n(CCN3CCCC3)c3ccc(S(=O)(=O)NC4(C)CC4)cc32)s1 [Example 153]  1120 nM
22. Cc1nnc(-n2c(=O)n(CCCN(C)C)c3ccc(S(=O)(=O)NC4(C)CC4)cc32)o1 [Example 133]  1140 nM
23. Cc1nnc(-n2c(=O)n(CC3CCCN(C)C3)c3ccc(S(=O)(=O)NC4(C)CC4)cc32)o1 (stereo not drawn) [Example 139]  1150 nM
24. Cc1nnc(-n2c(=O)n(CCC(N)=O)c3ccc(S(=O)(=O)NC4(C)CC4)cc32)o1 [Example 151]  1160 nM
25. Cc1nc(C)c(Cn2c(=O)n(-c3cnsc3)c3cc(S(=O)(=O)NC4(C)CC4)ccc32)s1 [Example 93]  1340 nM
26. Cc1nnc(-n2c(=O)[nH]c3ccc(S(=O)(=O)NC4(C)CC4)cc32)o1 [Example 94, N-(1-Methylcyclopropyl)-3-(5-methyl-1,3,4-oxadiazol-2-yl)-2-oxo-1H-benzimidazole-5-sulfonamide]  1460 nM
27. Cc1csc(-n2c(=O)n(Cc3sc(C)nc3C)c3ccc(S(=O)(=O)NC4(C)CC4)cc32)n1 [Example 106]  1520 nM
28. Cc1nnc(-n2c(C)nc3ccc(S(=O)(=O)NC4(C)CC4)cc32)s1 [Example 122]  1530 nM
29. Cc1nnc(-n2c(=O)n(CCN3CCCCC3)c3ccc(S(=O)(=O)NC4(C)CC4)cc32)o1 [Example 140]  1970 nM
30. Cc1nnc(-n2cc(CC3CC3)c3ccc(S(=O)(=O)NC4(C)CC4)cc32)s1 [Example 128, 3-(Cyclopropylmethyl)-N-(1-methylcyclopropyl)-1-(5-methyl-1,3,4-thiadiazol-2-yl)indole-6-sulfonamide]  2110 nM
31. Cc1nnc(-n2c(=O)n(CCN(C)C)c3ccc(S(=O)(=O)NC4(C)CC4)cc32)o1 [Example 137]  2280 nM
32. Cc1nnc(-n2ccc3ccc(S(=O)(=O)NC4(C)CC4)cc32)s1 [Example 115, N-(1-Methylcyclopropyl)-1-(5-methyl-1,3,4-thiadiazol-2-yl)indole-6-sulfonamide]  2320 nM
33. Cc1nnc(-n2c(CCN)nc3ccc(S(=O)(=O)NC4(C)CC4)cc32)s1 [Example 125]  2560 nM
34. CC1(NS(=O)(=O)c2ccc3c(c2)n(-c2nccs2)c(=O)n3Cc2ccc(F)cc2)CC1 [Example 76]  2710 nM
35. Cc1nnc(-n2c(=O)n(CCN3CCCC3)c3ccc(S(=O)(=O)NC4(C)CC4)cc32)o1 [Example 142]  3800 nM
36. Cc1nnc(-n2cc(Cc3ccccc3)c3ccc(S(=O)(=O)NC4(C)CC4)cc32)s1 [Example 126, 3-Benzyl-N-(1-methylcyclopropyl)-1-(5-methyl-1,3,4-thiadiazol-2-yl)indole-6-sulfonamide]  4280 nM
37. Cn1c(=O)n(-c2nncs2)c2cc(S(=O)(=O)NC3(C)CC3)ccc21 [Example 77]  5000 nM
38. Cc1nnc(-n2cc(Cc3ccc(F)cc3)c3ccc(S(=O)(=O)NC4(C)CC4)cc32)s1 [Example 127, 3-[(4-Fluorophenyl)methyl]-N-(1-methylcyclopropyl)-1-(5-methyl-1,3,4-thiadiazol-2-yl)indole-6-sulfonamide]  6050 nM
39. Cc1nc(C)c(Cn2c(=O)n(-c3ccn(C)n3)c3cc(S(=O)(=O)NC4(C)CC4)ccc32)s1 [Example 96]  7030 nM
40. CN(C)C(=O)CCc1cnc(-n2c(=O)n(C)c3ccc(S(=O)(=O)NC4(C)CC4)cc32)s1 [Example 71, N, N-Dimethyl-3-[2-[3-methyl-6-[(1-methylcyclopropyl)sulfamoyl]-2-oxo-benzimidazol-1-yl]thiazol-5-yl]propanamide]  7050 nM
41. CCOC(=O)n1cc(Cc2sc(C)nc2C)c2ccc(S(=O)(=O)NC3(C)CC3)cc21 [Example 132, Ethyl 3-[(2,4-dimethylthiazol-5-yl)methyl]-6-[(1-methylcyclopropyl)sulfamoyl]indole-1-carboxylate]  7420 nM
42. CC(=O)NCc1nc2ccc(S(=O)(=O)NC3(C)CC3)cc2n1-c1nnc(C)s1 [Example 124]  7680 nM
43. CC1(NS(=O)(=O)c2ccc3c(c2)[nH]c(=O)n3Cc2ccc(F)cc2)CC1 [Example 72, 1-[(4-Fluorophenyl)methyl]-N-(1-methylcyclopropyl)-2-oxo-3H-benzimidazole-5-sulfonamide]  8300 nM
44. Cc1nc(C)c(Cn2c(=O)[nH]c3cc(S(=O)(=O)NC4(C)CC4)ccc32)s1 [Example 89, 1-[(2,4-Dimethylthiazol-5-yl)methyl]-N-(1-methylcyclopropyl)-2-oxo-3H-benzimidazole-5-sulfonamide]  9270 nM
45. CNC(=O)CCc1cnc(-n2c(=O)n(C)c3ccc(S(=O)(=O)NC4(C)CC4)cc32)s1 [Example 74, N-methyl-3-[2-[3-methyl-6-[(1-methylcyclopropyl)sulfamoyl]-2-oxo-benzimidazol-1-yl]thiazol-5-yl]propanamide]  9730 nM

From patent US10508086B2 (CANCER RESEARCH TECHNOLOGY LIMITED, priority 2014, dated 2019)
